Our source for the IC50 and Percent survival values is patent publication US6153591A, “Dipeptide caspase inhibitors and the use thereof” (Cytovia, Inc., priority 1999, dated 2000).

For orientation: IC50 means the concentration that inhibits the measured activity by half.

Square brackets hold non-standard residues; d marks the D form. Peptide text beside a SMILES is read from it. * marks the point of attachment. ξ: configuration not given here. 1Nal = N[C@@H](Cc1cccc2ccccc12)C(=O)O; ξPhg = NC(C(=O)O)c1ccccc1; Cbz = O=C(OCc1ccccc1)*; CH2F = FC*

One experiment addresses T1, caspase-3 (CPP32) (Homo sapiens, UniProt P42574).
T1 construct: made in house; host or cells: Sf9 insect cells, baculovirus vector
T1 sequence (P42574 29-175 limits assumed): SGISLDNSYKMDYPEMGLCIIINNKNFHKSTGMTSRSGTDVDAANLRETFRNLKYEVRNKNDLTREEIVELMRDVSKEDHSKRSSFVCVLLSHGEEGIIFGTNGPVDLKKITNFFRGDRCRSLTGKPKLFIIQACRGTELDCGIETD
T1 sequence (P42574 176-277 limits assumed): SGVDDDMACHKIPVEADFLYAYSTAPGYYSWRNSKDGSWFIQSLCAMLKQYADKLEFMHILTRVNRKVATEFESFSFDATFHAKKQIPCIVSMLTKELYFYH
In words: Fluorometric enzyme assay of caspase-3 inhibition. The note with it: recombinant caspase-3, substrate Asp-Glu-Val-Asp-AMC 5 μM, 30° C., 30 minutes. The class given is biochemical. The procedure:
The activity of Cbz-Phg-Asp-fmk as an inhibitor of caspase-3 (CPP32) was measured in a fluorometric enzyme assay. Recombinant caspase-3 protein was prepared by expressing DNA clones encoding these enzymes in an insect host cell (sf9 cells) using baculovirus as the vector. See, Webb, N.R. et al., "Expression of proteins using recombinant Baculovirus," Techniques 2:173-188 (1990). Enzyme activity was measured using synthetic peptide substrates attached to a fluorogenic leaving group. Cleavage of the synthetic substrate by the enzyme results in a fluorescent signal which is read in a spectrofluorometer or in a fluorometric microtiter plate reader.
Caspase-3 activity was measured using the following buffer conditions: 100 mM HEPES pH 7.5, with 10% sucrose, 1% CHAPS. The peptide substrate for caspase-3 is Asp-Glu-Val-Asp-AMC (SEQ ID NO:2). […] The assay for enzyme activity was typically carried out at 30° C. for 30 minutes.

The test system of experiment [1] is lethality in mice caused by an anti-Fas antibody (clone Jo2). In words: Protection against lethality in mice caused by anti-Fas antibody (clone Jo2). The class given is in vivo. The note with it: Swiss Webster female mice, 6 μg Fas antibody. Here is the method:
Cbz-Phg-Asp-fmk was examined as a protectant against lethality in mice caused by an anti-Fas antibody (clone Jo2) (Rodriguez, I. et al J. Exp. Med 184:2067-2072 (1996). Swiss Webster female mice weighing between 16-20 g were used. Food and water were given ad libium. Purified hamster anti-mouse Fas monoclonal antibody (clone Jo2, commercially available) 1 mg/ml in phosphate buffered saline was dosed i.v. at 6 μg/mouse (80 μl).
Cbz-Phg-Asp-fmk was dissolved in 0.05M Tris base adjusted to pH 8.5 with HCl. The concentration of Cbz-Phg-Asp-fmk was 1-10 mg/ml dosed as a single bolus i.v. in a volume of 1-5 μl/g body weight. Five groups of mice were injected with 6 μg of Fas antibody per mouse. 5 minutes following the antibody injection the mice received either Tris vehicle control or 1, 2.5, 10 or 50 mg/kg of Cbz-Phg-Asp-fmk. The survival of the mice was followed throughout 24 hours.

For `O=C(O)CC(NC(=O)C(NC(=O)OCc1ccccc1)c1ccc(C(F)(F)F)cc1)C(=O)CF` (stereo not shown) [Z-(4-CF3 --Phg)--Asp--fmk, Z-(4-CF3 -Phg)-Asp-fmk], the IC50 on caspase-3 (CPP32) was determined as 1200 nM.

With `O=C(O)CC(NC(=O)C(NC(=O)OCc1ccccc1)c1ccsc1)C(=O)CF` (stereo not shown) [Z-(3-Thg)--Asp--fmk, Z-(3-Thg)-Asp-fmk], the IC50 at caspase-3 (CPP32) came to 340 nM.

`O=C(O)C[C@H](NC(=O)[C@H](Cc1cccc2ccccc12)NC(=O)OCc1ccccc1)C(=O)CF` [Z-[(L)-1-Nal]--Asp--fmk, Z-[(L)-1-Nal]-Asp-fmk] (Cbz-[1Nal]-Asp-CH2F): the IC50 at caspase-3 (CPP32) turned out to be 1000 nM.

Turning to `O=C(O)C[C@H](NC(=O)C(NC(=O)OCc1ccccc1)c1ccccc1)C(=O)CF` (stereo partly drawn) [Cbz-Phg-Asp-fmk] (Cbz-[ξPhg]-Asp-CH2F), the Percent survival was determined as 100% in experiment [1] (1 mg/kg i.v., 1 h); 14.3% in experiment [1] (1 mg/kg i.v., 3 h); 0% in experiment [1] (1 mg/kg i.v., 24 h); 100% in experiment [1] (2.5 mg/kg i.v., 1 h); 28.6% in experiment [1] (2.5 mg/kg i.v., 3 h); 0% in experiment [1] (2.5 mg/kg i.v., 24 h). Moreover, the Percent survival turned out to be 100% in experiment [1] (10 mg/kg i.v., 1 h); 42.9% in experiment [1] (10 mg/kg i.v., 3 h); 14.3% in experiment [1] (10 mg/kg i.v., 24 h); 100% in experiment [1] (50 mg/kg i.v., 1 h); 100% in experiment [1] (50 mg/kg i.v., 3 h); 42.9% in experiment [1] (50 mg/kg i.v., 24 h).

Turning to `O=C(O)CC(NC(=O)C(NC(=O)OCc1ccccc1)c1ccccc1F)C(=O)CF` (stereo not shown) [Z-(2-F--Phg)--Asp--fmk, Z-(2-F-Phg)-Asp-fmk], the 50% inhibitory concentration (IC50) at caspase-3 (CPP32) is 360 nM.

On to `CC(C(NC(=O)OCc1ccccc1)C(=O)NC(CC(=O)O)C(=O)CF)C(F)(F)F` (stereo not shown) [Z--(F3 --Val)--Asp--fmk, Z-(F3 -Val)-Asp-fmk], for which, at caspase-3 (CPP32), the IC50 came out at 600 nM.

Consider `CC(C)C(CNC(=O)OCc1ccccc1)C(=O)N[C@@H](CC(=O)O)C(=O)CF` (stereo partly drawn) [Z-(2-i-Pr-- --Ala)--Asp--fmk, Z-(2-i-Pr-β-Ala)-Asp-fmk], for which, at caspase-3 (CPP32), the IC50 stood at 1400 nM.

As to `CC(C)(F)[C@H](NC(=O)OCc1ccccc1)C(=O)N[C@@H](CC(=O)O)C(=O)CF` [Z-(3-F-Val)--Asp--fmk, Z-(3-F-Val)-Asp-fmk], the IC50 at caspase-3 (CPP32) came to 440 nM.

In the case of `O=C(O)C[C@H](NC(=O)C(NC(=O)OCc1ccccc1)c1cccs1)C(=O)CF` (stereo partly shown) [Z-(2-Thg)--Asp--fmk, Z-(2-Thg)-Asp-fmk], on caspase-3 (CPP32), the concentration for half-maximal inhibition (IC50) was determined as 280 nM.

As to `O=C(O)CC(NC(=O)C(NC(=O)OCc1ccccc1)c1ccsc1)C(=O)CF` (stereo not shown) [Z-[(L)-3-Thg]--Asp--fmk] [Z-[(L)-3-Thg]-Asp-fmk], the IC50 on caspase-3 (CPP32) was 260 nM.

Regarding `O=C(O)CC(NC(=O)C(NC(=O)OCc1ccccc1)c1ccc(F)cc1)C(=O)CF` (stereo not shown) [Z-(4-F-Phg)--Asp--fmk, Z-(4-F-Phg)-Asp-fmk], the IC50 on caspase-3 (CPP32) came out at 1200 nM.

`CN(C)CC(NC(=O)OCc1ccccc1)C(=O)NC(CC(=O)O)C(=O)CF` (stereo not shown) [Z-(3-Me2 N--Ala]--Asp--fmk, Z-(3-Me2 N-Ala)-Asp-fmk]: the IC50 on caspase-3 (CPP32) came out at 9600 nM.

On to “Z-[3-F-3-Me-Ala]-Asp-fmk [Z-(3-F-3-Me--Ala)--Asp--fmk]”, for which the concentration for half-maximal inhibition (IC50) at caspase-3 (CPP32) stood at 480 nM.

Turning to `O=C(O)C[C@H](NC(=O)CC(NC(=O)OCc1ccccc1)c1ccccc1)C(=O)CF` (stereo partly drawn) [Z-(3-Ph-- --Ala)--Asp--fmk, Z-(3-Ph-β-Ala)-Asp-fmk], the IC50 on caspase-3 (CPP32) was determined as 4700 nM.

In the case of `O=C(O)CC(NC(=O)C(NC(=O)OCc1ccccc1)c1ccco1)C(=O)CF` (stereo not shown) [Z-(2-Fug)--Asp--fmk, Z-(2-Fug)-Asp-fmk], the IC50 at caspase-3 (CPP32) amounted to 440 nM.

Take `O=C(O)CC(NC(=O)C(NC(=O)OCc1ccccc1)c1cccs1)C(=O)CF` (stereo not shown) [Z-[(L)-2-Thg]--Asp--fmk, Z-[(L)-2-Thg]-Asp-fmk]: the IC50 on caspase-3 (CPP32) stood at 510 nM.

For `O=C(O)CC(NC(=O)C(NC(=O)OCc1ccccc1)c1ccc(Cl)cc1)C(=O)CF` (stereo not shown) [Z-(4-Cl--Phg)--Asp--fmk, Z-(4-Cl-Phg)-Asp-fmk], the IC50 at caspase-3 (CPP32) came to 270 nM.

`O=C(O)CC(NC(=O)C(CCl)NC(=O)OCc1ccccc1)C(=O)CF` (stereo not shown) [Z-[(L)-3-Cl--Ala]--Asp--fmk, Z-[(L)-3-Cl-Ala]-Asp-fmk]: at caspase-3 (CPP32), the IC50 was 1000 nM.

For `N#CCC(NC(=O)OCc1ccccc1)C(=O)NC(CC(=O)O)C(=O)CF` (stereo not shown) [Z-[(L)-3-CN--Ala]--Asp--fmk, Z-[(L)-3-CN-Ala]-Asp-fmk], on caspase-3 (CPP32), the concentration for half-maximal inhibition (IC50) is 530 nM.

Turning to `O=C(O)CC(NC(=O)C(CF)NC(=O)OCc1ccccc1)C(=O)CF` (stereo not shown) [Z-(3-F-Ala)--Asp--fmk, Z-(3-F-Ala)-Asp-fmk], the IC50 on caspase-3 (CPP32) worked out at 900 nM.
